Results reported in patent US9518022B2, “Anti-HIV compounds” (priority 2014, dated 2016).
Where two headings read alike, the source gives them in different places.

How the values were obtained:
[1] = Cytotoxicity assay (AlamarBlue) in mock infected MT-2 cells; assay type: cell-based; settings: human
Outline: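 MT-2 cells at 2×10^4 cells/well, mock-infected, treated with 3-fold serial compound dilutions for 96 h at 37 °C. AlamarBlue added for 3 h, fluorescence read at 545/590 nm; % inhibition versus solvent control fitted to a 4-parameter logistic to give CC50.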

[2] = test system: HIV-1 NL4-3 viral clone engineered to express Renilla luciferase in place of Nef; test: microbe, parasite or virus in culture; assay type: cell-based; settings: Human immunodeficiency virus 1, NL43, MT2, 96 h
Method: The present assay was used to screen candidate antiviral compounds by quantification of virus spread and production over several rounds of infection in vitro. MT-2, a HIV-1 permissive human T-cell line, was seeded in microtiter plates and was simultaneously treated with serially diluted compound and inoculated with a HIV-1 NL4-3 viral clone engineered to express Renilla luciferase in place of Nef. Following treatment, the culture was incubated for 96 hours. After the incubation, media was collected and used to estimate relative infectivity on the indicator cell line, TZM-bl. Additionally, viral spread was quantified by measuring luciferase activity via a commercially available luciferase substrate. In parallel, MT-2 cells were seeded and inoculated with mock virus in the presence of serially diluted compound. Compound toxicity was quantified 96 hours after treatment with AlamarBlue.
MT-2 (NIH Aids reagent program 237) cells were grown and maintained in an incubator at 37° C. with 5% CO2 using a basal medium of RPMI-1640 supplemented with 10% FBS. Cells were seeded in 100 μl at 2×10^4 cells/well in white walled 96-well microtiter plates. Candidate compounds were 3-fold serially diluted in the appropriate solvent. Solvent without compound was used as a no drug reference. Cells were inoculated at a multiplicity of 0.027 with an HIV-1 NL4-3 virus stock engineered to express Renilla luciferase in place of Nef. Diluted virus stock was first added to serially diluted compound. Compound and virus were delivered to cells in an equal volume (100 μl) and treated cultures were returned to the incubator for 96 hours. In parallel, plates for cytotoxicity estimates were prepared in the same way except cells were plated in clear walled 96-well microtiter plates and were mock infected.
At 96 hours post infection, 100 μl virus containing culture supernatant was collected from the treated and infected cultures and serially diluted in DMEM supplemented with 10% FBS, 1% sodium pyruvate, and 20 μg/ml DEAE dextran. One day prior, TZM-bl (ATCC PTA-5659) were cultured in basal medium of DMEM supplemented with 10% FBS and 1% sodium pyruvate and seeded at 7.5×10^3 cells/well in black walled 96-well microtiter plates. Diluted virus containing culture supernatant was transferred to TZM-bl cultures and incubated for 48 hours at 37° C. with 5% CO2. Infected TZM-bl cultures were fixed for 5 minutes with a 1% formaldehyde/0.2% gluteraldehyde/PBS solution then washed three times with PBS. Fixed cultures were incubated at 37° C. for 25 minutes with a 200 μg/ml MUG (4-Methylumbelliferyl β-D-[…])/DMEM solution. The reaction was stopped with an equal volume of 1M sodium carbonate and read at 360, 449 nm on fluorescence plate reader (Biotek).
At 96 hours post infection, 100 μl of culture supernatant was removed from the treated and infected cultures and EnduRen live cell substrate (Promega) was added at a final concentration 1.3 μg/ml. Cells were incubated for 1.5 hours at 37° C. with 5% CO2 then read on a luminescence plate reader (Biotek).
For all assays, data was imported into Accelrys Assay Explorer 3.3. In Assay Explorer, % inhibition (antiviral or cytotoxicity) was calculated using the solvent control as a reference by the following equation: 1−(SignalCompound/SignalReference). The % Inhibition and compound concentration data was fitted using the following 4-parameter logistic model (Assay Explorer model 42):
[formula] where X is compound concentration, Y is % inhibition, D is the maximum % Inhibition (constrained to 100%), C is IC50 value or inflection point, B is the hill slope, and A is the minimum % inhibition (constrained to 0%). The IC50 value is reported as the EC50 or CC50 depending on the assay endpoint. EC50 represents the effective concentration at which virus replication is inhibited by 50 percent. CC50 represents the concentration that results in the death of 50 percent of the host cells. […]

[3] = mock infected MT-2 cells, 96 hours, AlamarBlue, read-out: CC50

| Structure (SMILES) | CC50 at 96 h [1] | EC50 [2] | CC50 at 96 h [1, 3] |
| --- | --- | --- | --- |
| COc1cc2c(cc1OCc1ccccc1)CCNC2/C=C/c1cccc2[nH]ccc12 (centres unmarked) [CL, 6-(benzyloxy)-1-[(E)-2-(1H-indol-4-yl)ethenyl]-7-methoxy-1,2,3,4-tetrahydroisoquinoline] | 7.2 µM | 1500 nM |  |
| COc1cc2c(cc1OCc1ccccc1)CCNC2/C=C/c1ccc2cn[nH]c2c1 (centres unmarked) [BT, 6-(benzyloxy)-1-[(E)-2-(1H-indazol-6-yl)ethenyl]-7-methoxy-1,2,3,4-tetrahydroisoquinoline] | 7.98 µM | 613 nM |  |
| COc1cc(/C=C/C2NCCc3cc(OCc4ccccc4)c(OC)cc32)c(N(C)C)cc1OC (centres unmarked) [CT, 2-[(E)-2-[6-(benzyloxy)-7-methoxy-1,2,3,4-tetrahydroisoquinolin-1-yl]ethenyl]-4,5-dimethoxy-N,N-dimethylaniline] | 8.9 µM | 200 nM |  |
| COc1cc2c(cc1OCc1ccccc1)CCNC2/C=C/c1cccc2ccn(C(=O)OC(C)(C)C)c12 (centres unmarked) [CN, tert-butyl 7-[(E)-2-[6-(benzyloxy)-7-methoxy-1,2,3,4-tetrahydroisoquinolin-1-yl]ethenyl]-1H-indole-1-carboxylate] | 19.6 µM | 1830 nM |  |
| COc1cc2c(cc1OCc1ccccc1)CCNC2/C=C/c1ccc2c(ccn2C(=O)OC(C)(C)C)c1 (centres unmarked) [CM, tert-butyl 5-[(E)-2-[6-(benzyloxy)-7-methoxy-1,2,3,4-tetrahydroisoquinolin-1-yl]ethenyl]-1H-indole-1-carboxylate] | 10 µM | 1300 nM |  |
| COc1cc2c(cc1/C=C/C1NCCc3cc(OCc4ccccc4)c(OC)cc31)OCO2 (centres unmarked) [CR, 6-(benzyloxy)-7-methoxy-1-[(E)-2-(6-methoxy-2H-1,3-benzodioxol-5-yl)ethenyl]-1,2,3,4-tetrahydroisoquinoline] | 3.3 µM | 120 nM |  |
| COc1cc2c(cc1OCc1ccccc1)CCNC2/C=C/c1cccnc1N(C)C (centres unmarked) [CU, 3-[(E)-2-[6-(benzyloxy)-7-methoxy-1,2,3,4-tetrahydroisoquinolin-1-yl]ethenyl]-N,N-dimethylpyridin-2-amine] | 19.9 µM | 1400 nM |  |
| COc1cc2c(cc1OCc1ccccc1)CCNC2/C=C/c1cccc2c1ccn2C(=O)OC(C)(C)C (centres unmarked) [CK, tert-butyl 4-[(E)-2-[6-(benzyloxy)-7-methoxy-1,2,3,4-tetrahydroisoquinolin-1-yl]ethenyl]-1H-indole-1-carboxylate] | 5.99 µM | 805 nM |  |
| COc1cc2c(cc1OCc1ccccc1)CCNC2/C=C/c1cccc(S(C)(=O)=O)c1 (centres unmarked) [CP, 6-(benzyloxy)-1-[(E)-2-(3-methanesulfonylphenyl)ethenyl]-7-methoxy-1,2,3,4-tetrahydroisoquinoline] | 20.6 µM | 3070 nM |  |
| COc1cc2c(cc1OCc1ccccc1)CCNC2/C=C/c1ccc2ccn(C(=O)OC(C)(C)C)c2c1 (centres unmarked) [CS, tert-butyl 6-[(E)-2-[6-(benzyloxy)-7-methoxy-1,2,3,4-tetrahydroisoquinolin-1-yl]ethenyl]-1H-indole-1-carboxylate] | 6.15 µM | 912 nM |  |
| COc1cc2c(cc1/C=C/C1NCCc3cc(OCc4ccccc4)c(OC)cc31)OCCO2 (centres unmarked) [CQ, 6-(benzyloxy)-7-methoxy-1-[(E)-2-(7-methoxy-2,3-dihydro-1,4-benzodioxin-6-yl)ethenyl]-1,2,3,4-tetrahydroisoquinoline] | 1.4 µM | 60 nM |  |
| COc1cc2c(cc1OCc1ccccc1)CCNC2/C=C/c1ccc(N2CCN(C)CC2)cc1 (centres unmarked) [DW, 6-(benzyloxy)-7-methoxy-1-[(E)-2-[4-(4-methylpiperazin-1-yl)phenyl]ethenyl]-1,2,3,4-tetrahydroisoquinoline] | 2.31 µM |  |  |
| COc1cc2c(cc1OCc1ccccc1)CCNC2/C=C/c1c[nH]c2ccccc12 (centres unmarked) [CJ, 6-(benzyloxy)-1-[(E)-2-(1H-indol-3-yl)ethenyl]-7-methoxy-1,2,3,4-tetrahydroisoquinoline] | 6.55 µM |  |  |
| COc1cc(C(C)(C)C)c(/C=C/C2NCCc3cc(OCc4ccccc4)c(OC)cc32)cc1OCc1ccccc1 (centres unmarked) [Example J, 6-Benzyloxy-1-[(E)-2-(5-benzyloxy-2-tert-butyl-4-methoxy-phenyl)vinyl]-7-methoxy-1,2,3,4-tetrahydroisoquinoline] | 5.36 µM |  |  |
| COc1cc2c(cc1OCc1ccccc1)CCNC2/C=C/c1ccccc1C (centres unmarked) [Example W, 6-benzyloxy-7-methoxy-1-[(E)-2-(o-tolyl)vinyl]-1,2,3,4-tetrahydroisoquinoline] |  |  | 4 µM |
| COc1cc2c(cc1OCc1ccccc1)CCNC2/C=C/c1ccc(-c2ccccn2)cc1 (centres unmarked) [DZ, 6-(benzyloxy)-7-methoxy-1-[(E)-2-[4-(pyridin-2-yl)phenyl]ethenyl]-1,2,3,4-tetrahydroisoquinoline] | 5.8 µM |  |  |
| COc1ccc(CCC2NCCc3cc(OC)c(OC)cc32)cc1OC (centres unmarked) [Example A, 1-[2-(3,4-Dimethoxyphenyl)ethyl]-6,7-dimethoxy-1,2,3,4-tetrahydroisoquinoline] | > 10 µM |  |  |
| COc1ccc(/C=C/C2c3cc(OC)c(OCc4ccccc4)cc3CCN2C)cc1OCc1ccccc1 (centres unmarked) [Example V, 6-benzyloxy-1-[(E)-2-(3-benzyloxy-4-methoxy-phenyl)vinyl]-7-methoxy-2-methyl-3,4-dihydro-1H-isoquinoline] | 6.68 µM |  |  |
| COc1cc2c(cc1OCc1ccccc1)CCNC2/C=C/c1c(C)ccc2c1OCCC2 (centres unmarked) [CC, 6-(benzyloxy)-7-methoxy-1-[(E)-2-(7-methyl-3,4-dihydro-2H-1-benzopyran-8-yl)ethenyl]-1,2,3,4-tetrahydroisoquinoline] | 5.44 µM |  |  |
| COc1cc(C)c(CCC2NCCc3cc(OCc4ccccc4)c(OC)cc32)cc1OCc1ccccc1 (centres unmarked) [Example Q, 6-benzyloxy-1-[2-(5-benzyloxy-4-methoxy-2-methyl-phenyl)ethyl]-7-methoxy-1,2,3,4-tetrahydroisoquinoline] | 5.15 µM |  |  |
| COc1cc2c(cc1OCc1ccccc1)CCNC2/C=C/c1ccc(-c2cncnc2)cc1 (centres unmarked) [DS, 6-(benzyloxy)-7-methoxy-1-[(E)-2-[4-(pyrimidin-5-yl)phenyl]ethenyl]-1,2,3,4-tetrahydroisoquinoline] | 7.39 µM |  |  |
| COc1ccc(/C=C/C2NCCc3cc(OCc4ccccc4)c(OC)cc32)cc1 (centres unmarked) [BJ, 6-(benzyloxy)-7-methoxy-1-[(E)-2-(4-methoxyphenyl)ethenyl]-1,2,3,4-tetrahydroisoquinoline] | 20.9 µM |  |  |
| COc1ccc(/C=C/C2NCCc3cc(OCc4ccccc4)c(OC)cc32)cc1OCc1ccccc1 (centres unmarked) [Example AB, 6-benzyloxy-1-[(E)-2-(3-benzyloxy-4-methoxy-phenyl)vinyl]-7-methoxy-1,2,3,4-tetrahydroisoquinoline] |  |  | 3.96 µM |
| CCCCOc1cc(/C=C/C2NCCc3cc(OCc4ccccc4)c(OC)cc32)ccc1OC (centres unmarked) [BE, 6-(benzyloxy)-1-[(E)-2-(3-butoxy-4-methoxyphenyl)ethenyl]-7-methoxy-1,2,3,4-tetrahydroisoquinoline] | 3.75 µM |  |  |
| COc1cc2c(cc1OCc1ccccc1)CCNC2c1cc(OCc2ccccc2)c(OC)cc1C (centres unmarked) [AY, 6-(benzyloxy)-1-[5-(benzyloxy)-4-methoxy-2-methylphenyl]-7-methoxy-1,2,3,4-tetrahydroisoquinoline] | 5.14 µM |  |  |
| COc1cc2c(cc1OCc1ccccc1)CCNC2/C=C/c1ccc(F)c(O)c1F (centres unmarked) [CO, 3-[(E)-2-[6-(benzyloxy)-7-methoxy-1,2,3,4-tetrahydroisoquinolin-1-yl]ethenyl]-2,6-difluorophenol] | 10 µM | 6000 nM |  |
